Data published in patent US9708305B2, “Substituted 1,2,3,4-tetrahydroisoquinoline derivatives for the treatment of hormone-dependent diseases” (UNIVERSITÉ LAVAL, priority 2013, dated 2017).

Legend:
[1] = system: alkaline phosphatase activity in Saos-2 cells; test: Alkaline phosphatase assay (Saos-2 cells), phenol library; format: cell-based; conditions: 1 nM; control (no treatment) fixed at 100%
Experimental: We also investigated the effect of selected phenol derivatives on alkaline phosphatase activity in Saos-2 cells (FIG. 13B).
Saos-2 cells were used similarly as reported in the cell proliferation assay. The cells were seeded at a density of 2 000 cells/well and treated for 3 days with each compound to be tested. The alkaline phosphatase (ALP) activity was measured using the Sensolyte® pNPP Alkaline Phosphatase Assay Kit *Colorimetric* (AnaSpec, Freemont, Calif.) following the manufacturer's protocol. Briefly, after three days of treatment, the cells were washed twice with washing buffer (provided with the kit) and lysed with 0.2% Triton X-100. The cell lysates were centrifuged and the supernatants were used to determine ALP activity. The supernatants were deposed in a 96-well plate and incubated for 30 minutes with a p-nitrophenyl phosphate solution (provided with the kit). The absorbance at 405 nm was measured with a Thermo max microplate reader (Molecular Devices, Sunnyvale, Calif.). The control (culture media+DMSO) is set to 100% of alkaline phosphatase activity.

[2] = system: Saos-2 (ER+) cells; test: Proliferative activity on Saos-2 (ER+) cells, phenol library; format: cell-based; conditions: 1 μM (stated for reference compounds); 7 days; control 100%
Experimental: Estrogens are known to have a beneficial effect on bones. […] The phenol derivatives 3′-EO-09 to 3′-EO-11 and 3′-EO-14 to 3′-EO-17 were tested on the osteoblast-like cell line Saos-2 to further evaluate their SERM capacity (FIG. 13A).
The osteoblast-like Saos-2 cells were maintained in culture flasks (175 cm^2 growth area, BD Falcon) at 37° C. in a 5% CO2 humidified atmosphere and grown in McCoy's 5A medium supplemented with 10% fetal bovine serum (FBS), penicillin (100 IU/mL) and streptomycin (100 μg/mL). Penicillin/streptomycin mix, L-Glutamine, normal and charcoal-stripped FBS were purchased from Wisent, Inc. (St-Bruno, QC, Canada), phenol-red free McCoy's 5A was purchased from PromoCell (Heidelberg, Germany). Chemicals tested were first dissolved in DMSO and subsequent dilutions were done in the cell culture medium. The final concentration of DMSO in the culture medium was 0.1% or less. For the proliferation assay, the […] FBS in the culture medium was replaced with 10% charcoal-stripped FBS. The cells were seeded in 96-well plates at a density of 10 000 cells/well and allowed to attach 24 h. After 24 h, the phenolic compounds diluted in culture medium were added to the wells and replaced every 2 days for 7 days of treatment. As reported above, MTS was used as an indirect colorimetric measurement of cell proliferation according to the manufacturer's instructions, except the plate were incubated 2 h instead of 4 h.

[3] = system: AR+ tissues (prostate and seminal vesicles); conditions: cited from earlier work
[4] = system: uterus weight of ovariectomized mice (OVX); conditions: cited from earlier work
[5] = system: alkaline phosphatase (ALP) activity in Saos-2 cells; test: Alkaline phosphatase (ALP) activity in Saos-2 cells; format: cell-based
Experimental: ALP is an enzyme that releases inorganic phosphate from different intracellular substrates such as pyrophosphate and pyridoxal 5′-phosphate.^63 The inorganic phosphate is used in the formation of hydroxyapatite crystals which are then inserted in the extracellular protein scaffold to form the solid part of bone tissue.
Saos-2 cells were treated similarly as reported in the cell proliferation assay. The cells were seeded at a density of 2 000 cells/well and were treated with the inhibitors and the reference compounds for 3 days. The alkaline phosphatase (ALP) activity was measured using Sensolyte® pNPP Alkaline Phosphatase Assay Kit *Colorimetric* (AnaSpec, Fremont, Calif.) following the manufacturer's protocol. Briefly, after the 3 days of treatment, the cells were washed twice with washing buffer (provided with the kit) and lysed with 0.2% Triton X-100. The cell lysates were centrifuged and the supernatants were used to determine the ALP activity. The supernatants were deposed in a 96-well plate and incubated 30 min with a p-nitrophenyl phosphate solution (provided with the kit). The absorbance at 405 nm was measured with a Thermo max microplate reader (Molecular Devices, Sunnyvale, Calif.). The control (culture media+DMSO) is set to 100% of alkaline phosphatase activity.

[6] = system: T-47D cells; test: T-47D cell proliferation in presence of E2 (antiestrogenicity); format: cell-based
Experimental: (§1) CellTitter 96® Aqueous One Solution Cell Proliferation Assay was used as an indirect colorimetric measurement of cell proliferation according to the manufacturer's instructions. Briefly, after the treatments, 20 μL of MTS solution was added to each well (100 μL) of the plates and incubated at 37° C. for 2 h (Saos-2) or 4 h (T-47D). The absorbance at 490 nm was then measured with a Thermo max microplate reader (Molecular Devices, Sunnyvale, Calif.). The control (culture media+DMSO) is set to 100% of cell proliferation.
The cells were plated in 96-well plates at a density of 3 000 cells/well and allowed to attach for 48 h. After this pre-incubation, the inhibitors and the reference compounds diluted in fresh culture media were added to the wells and replaced every 2 days for 7 days of treatment.

[7] = system: T-47D cells; test: T-47D cell proliferation (estrogenicity / cytotoxicity), MTS; format: cell-based
[8] = system: osteoblast-like Saos-2 cells; test: Saos-2 cell proliferation, MTS; format: cell-based; conditions: for Bone cells Saos-2 (ER+) SERM effect Proliferative activity (%): in percentage of control (100%; 0.1 nM of estradiol)
From the text: First, we wanted to evaluate their effect on cell proliferation. […] This is outlined in FIG. 8A. […] One of the main roles of osteoblasts in bone tissue is to construct a calcified extracellular matrix.^15 As such, bone formation is not principally due to osteoblasts proliferation but rather osteoblasts maturation into mature osteocytes. […] This is outlined in FIG. 8B.
as §1
Saos-2 cells were suspended in phenol-red free McCoy's 5A medium supplemented with 10% charcoal-stripped FBS, penicillin (100 IU/mL) and streptomycin (100 μg/mL). The cells were seeded in 96-well plates at a density of 3 000 cells/well and allowed to attach. After 24 h, the inhibitors and the reference compounds diluted in fresh culture media were added to the wells and replaced every 2 days for 7 days of treatment.

[9] = molecular target: T1, steroid sulfatase (STS) (Homo sapiens, UniProt P08842); test: Steroid sulfatase (STS) inhibition, [3H]-E1S to [3H]-E1, homogenate of transfected HEK-293 cells; format: biochemical; conditions: transformation of E1S into E1 in homogenate of HEK-293 cells transfected with STS; read-out: Steroid Sulfatase Inhibition IC50
T1 construct: expressed in transfected cells; host or cells: HEK-293 cells stably transfected with STS (G418 selection), obtained from Dr. Van Luu-The; used as freeze-thaw homogenate
T1 sequence (P08842 22-583): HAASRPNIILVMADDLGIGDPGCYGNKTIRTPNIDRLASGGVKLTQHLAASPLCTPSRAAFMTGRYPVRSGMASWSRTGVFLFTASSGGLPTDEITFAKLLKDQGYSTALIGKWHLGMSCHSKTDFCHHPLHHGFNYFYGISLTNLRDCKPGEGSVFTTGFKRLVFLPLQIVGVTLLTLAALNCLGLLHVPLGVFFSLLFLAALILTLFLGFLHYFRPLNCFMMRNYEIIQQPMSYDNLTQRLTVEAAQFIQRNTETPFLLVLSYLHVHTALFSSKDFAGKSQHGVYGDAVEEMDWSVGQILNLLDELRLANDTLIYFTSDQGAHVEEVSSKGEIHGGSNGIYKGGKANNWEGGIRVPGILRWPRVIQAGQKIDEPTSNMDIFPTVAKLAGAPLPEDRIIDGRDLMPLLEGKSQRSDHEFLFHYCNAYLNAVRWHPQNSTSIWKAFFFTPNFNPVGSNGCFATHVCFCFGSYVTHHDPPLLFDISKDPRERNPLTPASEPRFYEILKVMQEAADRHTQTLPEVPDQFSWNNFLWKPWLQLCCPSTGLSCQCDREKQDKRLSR
Experimental: To test STS inhibition, we used homogenated HEK-293 cells overexpressing STS and evaluated the capacity of our compounds to inhibit the conversion of [^3H]-E1S into [^3H]-E1. […] This is outlined in FIG. 5.
An enzymatic assay previously described was used for the inhibition of the transformation of estrone sulfate (E1S) to estrone (E1) by STS.^72 Briefly, the transfected HEK-293 cells were homogenized by repeated (5 times) cycles of freezing (−80° C.) and thawing on ice (4° C.). The homogenates were then incubated for 2 h at 37° C. (shaking water bath) with or without inhibitors (0.01 μM-1 μM) in presence of [^3H]-E1S (9 nM), adjusted to 1 μM with E1S, in a Tris-acetate buffer (pH 7.4) containing 5 mM EDTA and 10% glycerol. After the incubation, 1 mL of xylene was added to each tube and the solutions were then centrifuged at 3000 rpm for 20 min to separate the organic ([^3H]-E1) and aqueous ([^3H]-E1S) phases. Once 500 μL of each phase was added to 10 mL of Biodegradable Counting Scintillant, the radioactivity of samples was recorded using a Wallac 1411 Liquid Scintillation Counter. The percentage of inhibition was determined by comparison with the control (buffer+homogenate+[^3H]-E1S) which was set to 0% of inhibition. IC50 value was obtained using GraphPad Prism 5 (GraphPad Software, La Jolla, Calif.).

[10] = 1 μM, in % of control (100%; 0.1 nM of estradiol)

IC50 [9]	SMILES	ALP activity in Saos-2 cells [1]	proliferation of Saos-2 cells [2]	androgenic effect in the absence of DHEAS ([3]; injected in the absence of DHEAS)	effect of DHEAS on the weight of AR+ tissues (prostate and seminal vesicles) ([3]; with DHEAS)	estrogenic activity: uterus weight of OVX mice ([4]; compound alone)	stimulation of uterine weight induced by E1S in OVX mice ([4]; with E1S)	Bone cells Saos-2 (ER+) SERM effect Alkaline phosphatase activity (%) ([5]; 0.1 nM)	stimulation of ALP activity in presence of ICI-164,384 or MPP + PHTPP ([5]; 0.1 nM compound, antagonists 1 μM, 3 days)	block of E2 stimulation of T-47D proliferation ([6]; 0.01 μM to 1 μM, E2 0.1 nM)	Breast cancer cells T-47D (ER+) Antagonist activity (%) [6, 10]	cytotoxicity on T-47D cells in presence of E2 ([6]; 5 μM, E2 0.1 nM)	estrogenic activity on T-47D cells ([7]; 0.01 μM to 5 μM, 7 days)	Breast cancer cells T-47D (ER+) Agonist activity (%) [7, 10]	cytotoxicity on T-47D cells ([7]; 5 μM)	Saos-2 cell proliferation, dose response ([8]; 1 nM to 1 μM, 7 days)	Bone cells Saos-2 (ER+) SERM effect Proliferative activity (%) ([8]; 0.1 μM)	Bone cells Saos-2 (ER+) SERM effect Proliferative activity (%) ([8]; 1 μM)
–	CCN(Cc1ccc(C(=O)N2CCc3ccc(O)cc3C2)cc1)Cc1ccccn1 [3′-EO-14]	147%	140%	–	–	–	–	–	–	–	–	–	–	–	–	–	–	–
–	COc1cc2c(cc1OS(N)(=O)=O)CC[C@@H]1[C@@H]2CC[C@@]2(C)[C@H]1CC[C@@]2(O)Cc1ccccc1 [EM-1913, 3-O-sulfamate 17α-benzyl-2-methoxy-estra-1,3,5(10)-trien-17β-ol]	–	–	No more harmful androgenic effect was detected	block the effect of DHEAS	did not stimulate the uterus weight	effectively blocked	–	–	–	–	–	–	–	–	–	–	–
> 1000 nM	Cl.O=C(c1ccc(OCCN2CCCCC2)cc1)c1c(-c2ccc(O)cc2)sc2cc(O)ccc12 [raloxifene, Raloxifene hydrochloride, reference compound]	–	123%	–	–	–	–	86%	completely blocked the stimulation	able to block the E2 stimulation	96%	some cytotoxicity	no estrogenic activity	0%	induced some cytotoxicity	apparent dose-dependent response	75%	83%
